Laboratory results as given in patent US20190106460A1, “BINDING INHIBITORS OF THE BETA. TRANSDUCIN REPEAT-CONTAINING PROTEIN” (priority 2011, published 2019).
Like-named read-outs stand apart in the source and are kept apart here. Non-standard residues stand in square brackets, D forms with d. Residues, ends and D or L forms follow the SMILES beside them. No end group written: not given here.

Target: βTrCP (Homo sapiens, UniProt Q9Y297)
Assay: Fluorescence polarisation (FP) binding assay with fluorescein-tagged IκB peptide
Details: Tables 1, 3, 7, 8, 10 nM fluorescein-tagged IκB peptide

Chain of βTrCP (Q9Y297 whole entry): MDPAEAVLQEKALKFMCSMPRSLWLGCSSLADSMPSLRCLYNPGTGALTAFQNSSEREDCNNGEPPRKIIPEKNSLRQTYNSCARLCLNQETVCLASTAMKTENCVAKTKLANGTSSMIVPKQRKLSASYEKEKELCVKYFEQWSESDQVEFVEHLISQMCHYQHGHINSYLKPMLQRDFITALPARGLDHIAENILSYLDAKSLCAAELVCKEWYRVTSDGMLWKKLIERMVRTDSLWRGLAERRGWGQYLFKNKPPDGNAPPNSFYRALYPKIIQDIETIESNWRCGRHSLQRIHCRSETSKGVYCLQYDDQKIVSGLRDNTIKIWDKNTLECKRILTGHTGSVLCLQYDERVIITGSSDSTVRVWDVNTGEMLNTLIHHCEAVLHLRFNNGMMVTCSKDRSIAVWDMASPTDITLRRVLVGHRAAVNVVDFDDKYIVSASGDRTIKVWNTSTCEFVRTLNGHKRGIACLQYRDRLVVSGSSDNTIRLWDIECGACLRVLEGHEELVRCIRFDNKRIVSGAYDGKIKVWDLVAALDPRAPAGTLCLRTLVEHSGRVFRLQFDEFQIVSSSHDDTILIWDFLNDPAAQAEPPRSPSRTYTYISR
Chain of βTrCP (P63208 whole entry partner): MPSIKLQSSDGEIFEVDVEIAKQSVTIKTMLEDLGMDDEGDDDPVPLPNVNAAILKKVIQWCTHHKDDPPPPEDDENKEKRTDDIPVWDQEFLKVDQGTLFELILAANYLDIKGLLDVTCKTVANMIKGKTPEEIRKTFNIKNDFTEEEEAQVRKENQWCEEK

IC50 (read-out: FP Assay IC50/μM) | Molecule | IC50 (FP Assay IC50/μM)
> 100 µM | CC[C@H](C)[C@H](NC(=O)CNC(=O)[C@H](C)NC(=O)[C@H](N)CC(=O)O)C(=O)N[C@@H](Cc1ccccc1)C(=O)N[C@@H](CC(=O)O)C(N)=O [dAGIFD-NH2] (H-[dD]AGIFD-NH2) | –
> 100 µM | CC[C@H](C)[C@H](NC(=O)CNC(=O)[C@H](C)NC(=O)[C@H](N)CC(=O)O)C(=O)N[C@@H](Cc1ccccc1)C(=O)N[C@@H](CCCNC(=N)N)C(N)=O [dAGIFR-NH2] (H-[dD]AGIFR-NH2) | –
> 100 µM | CC[C@H](C)[C@H](NC(=O)CNC(=O)[C@H](CCC(=O)O)NC(=O)[C@H](N)CC(=O)O)C(=O)N[C@@H](Cc1ccccc1)C(=O)N[C@@H](CC(=O)O)C(N)=O [dEGIFD-NH2] (H-[dD]EGIFD-NH2) | –
> 100 µM | CC[C@H](C)[C@H](NC(=O)CNC(=O)[C@H](CC(N)=O)NC(=O)[C@H](N)CC(=O)O)C(=O)N[C@@H](Cc1ccccc1)C(=O)N[C@@H](CCCNC(=N)N)C(N)=O [dNGIFR-NH2] (H-[dD]NGIFR-NH2) | –
> 100 µM | ADAGIHS-NH2 [ADAGIHS-NH2] | –
> 100 µM | DAGFFE-NH2 [DAGFFE-NH2] | –
> 100 µM | DAGIFH-NH2 [DAGIFH-NH2] | –
> 100 µM | DAGIHS-NH2 [DAGIHS-NH2] | –
> 100 µM | DAGNFE-NH2 [DAGNFE-NH2] | –
> 100 µM | DDASGIHS-NH2 [DDASGIHS-NH2] | –
> 100 µM | EAGIFE-NH2 [EAGIFE-NH2] | –
> 100 µM | GDAGIHS-NH2 [GDAGIHS-NH2] | –
– | H-DEGFFE-NH2 [DEGFFE-NH2] | 43.6 µM
> 100 µM | LDASGIHS-NH2 [LDASGIHS-NH2] | –
> 100 µM | VDAGIHS-NH2 [VDAGIHS-NH2] | –
